Measured values from PubChem BioAssay (NCI).
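Grown in 96-well plates, cells were treated for 48 hours with each compound at five concentrations. Insufficient inhibition: endpoint recorded as highest concentration tested. TGI: total growth inhibition.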

Assays:
Assay in all cases: DTP human tumour cell line panel, 48 h
786-0 renal = tested on: 786-0 renal
A498 renal = tested on: A498 renal
A549 NSCLC = tested on: A549 NSCLC
ACHN renal = tested on: ACHN renal
CAKI-1 renal = tested on: CAKI-1 renal
CCRF-CEM leukemia = tested on: CCRF-CEM leukemia
COLO 205 colon = tested on: COLO 205 colon
DLD-1 colon = tested on: DLD-1 colon
DMS 114 small cell lung = tested on: DMS 114 small cell lung
DMS 273 small cell lung = tested on: DMS 273 small cell lung
EKVX NSCLC = tested on: EKVX NSCLC
HCC-2998 colon = tested on: HCC-2998 colon
HCT-116 colon = tested on: HCT-116 colon
HCT-15 colon = tested on: HCT-15 colon
HL-60(TB) leukemia = tested on: HL-60(TB) leukemia
HOP-18 NSCLC = tested on: HOP-18 NSCLC
HOP-62 NSCLC = tested on: HOP-62 NSCLC
HOP-92 NSCLC = tested on: HOP-92 NSCLC
HT29 colon = tested on: HT29 colon
IGROV1 ovarian = tested on: IGROV1 ovarian
K-562 leukemia = tested on: K-562 leukemia
KM12 colon = tested on: KM12 colon
KM20L2 colon = tested on: KM20L2 colon
LOX IMVI melanoma = tested on: LOX IMVI melanoma
LXFL 529 NSCLC = tested on: LXFL 529 NSCLC
M14 melanoma = tested on: M14 melanoma
M19-MEL melanoma = tested on: M19-MEL melanoma
MALME-3M melanoma = tested on: MALME-3M melanoma
MOLT-4 leukemia = tested on: MOLT-4 leukemia
NCI-H226 lung = tested on: NCI-H226 lung
NCI-H23 lung = tested on: NCI-H23 lung
NCI-H460 lung = tested on: NCI-H460 lung
NCI-H522 lung = tested on: NCI-H522 lung
OVCAR-3 ovarian = tested on: OVCAR-3 ovarian
OVCAR-4 ovarian = tested on: OVCAR-4 ovarian
OVCAR-5 ovarian = tested on: OVCAR-5 ovarian
OVCAR-8 ovarian = tested on: OVCAR-8 ovarian
RPMI-8226 leukemia = tested on: RPMI-8226 leukemia
RXF-631 renal = tested on: RXF-631 renal
SF-268 CNS = tested on: SF-268 CNS
SF-295 CNS = tested on: SF-295 CNS
SF-539 CNS = tested on: SF-539 CNS
SK-MEL-5 melanoma = tested on: SK-MEL-5 melanoma
SK-OV-3 ovarian = tested on: SK-OV-3 ovarian
SN12C renal = tested on: SN12C renal
SNB-19 CNS = tested on: SNB-19 CNS
SNB-78 CNS = tested on: SNB-78 CNS
SW-620 colon = tested on: SW-620 colon
TK-10 renal = tested on: TK-10 renal
U251 CNS = tested on: U251 CNS
UACC-257 melanoma = tested on: UACC-257 melanoma
UACC-62 melanoma = tested on: UACC-62 melanoma
UO-31 renal = tested on: UO-31 renal
XF 498 CNS = tested on: XF 498 CNS

Measured: TGI

O=C(CC(=O)c1cccc2ccccc12)C(=O)NC1C2CC3CC(C2)CC1C3 (centres undefined)
> 100 µM: all assays above
